Values quoted from earlier work as cited in patent publication US20220347065A1, “ANTIPERSPIRANT EMULSION” (Conopco, Inc., d/b/a UNILEVER, priority 2019, published 2022).

System: Staphylococcus epidermidis
Settings: 80% or greater reduction in growth, 16 to 24 hours at 37° C.

MIC	SMILES
greater than 1 mg·ml^−1	CCO [ethanol]
ca. 25 μg·ml^−1	CC(C)=CCCC(C)=CCCC(C)=CCO [farnesol, 3,7,11-trimethyldodeca-2,6,10-trienol]

SMILES	MIC
Oc1cc(Cl)ccc1Oc1ccc(Cl)cc1Cl [triclosan, 2′,4,4′-trichloro,2-hydroxy-diphenyl ether]	0.01 to 10 µg/mL
